Assay results taken from PMC7156458, “Synthetic biology based construction of biological activity-related library of fungal decalin-containing diterpenoid pyrones” (Nature Communications, 2020).
Like-named read-outs stand apart in the source and are kept apart here.

Legend:
[1] = test system: human immunodeficiency virus-1 (HIV-1); assay: anti-HIV MAGI assay; assay type: cell-based; conditions: Human immunodeficiency virus 1, MAGI, anti-HIV
Text: We examined the inhibitory activities of DDPs against various species of bacteria (both gram-negative and gram-positive bacteria), fungi and viruses. […] In contrast, preliminary screening of the DDPs for anti-viral agents with hepatitis B virus (HBV), measles virus (MV), Epstein-Barr virus (EBV), herpes simplex virus (HSV) and human immunodeficiency virus-1 (HIV-1) indicated their selective inhibition of HIV.

l(2)mbn cells = assay: cytotoxicity in Drosophila l(2)mbn cells; assay type: cell-based; conditions: for Luminescence Raw1: replicate 1; for Luminescence Raw2: replicate 2; for IC50: Drosophila melanogaster, cytotoxicity
Procedure: (§1) We screened the DDPs on the Drosophila assay system for cytotoxicity, inhibitory activity of innate immune signalling and insecticidal activity. The cytotoxicity of the DDPs was evaluated using two cell lines, embryonic macrophage-derived DL1 cells[58]–[60] and larval blood cell-derived l(2)mbn cells, and their IC50 values are listed in Supplementary Table 23.

[2] = cytotoxicity in Drosophila l(2)mbn cells; assay type: cell-based; conditions: Drosophila, l(2)mbn cells (larval blood cell-derived)
Procedure: as §1

DL1 cells = assay: cytotoxicity in Drosophila DL1 cells; assay type: cell-based; conditions: DL1 cells; for IC50: Drosophila melanogaster, cytotoxicity
Procedure: as §1

[3] = cytotoxicity in Drosophila DL1 cells; assay type: cell-based; conditions: Drosophila, DL1 cells (embryonic macrophage-derived), DL1 cells
Procedure: as §1

MAGI cells = assay: cytotoxicity in the anti-HIV assay (CC50); assay type: cell-based; conditions: single determinations
MCF-7 cells = assay: cell cytotoxic effects against MCF-7 cells (72 h), A490; assay type: cell-based, human
[4] = average of two replicates, read-out: IC50 Average
[5] = replicate 1, read-out: IC50 (1)
[6] = replicate 2, read-out: IC50 (2)
[7] = replicate 1, relative to DMSO 1%, read-out: % viability, viability 1
[8] = replicate 2, relative to DMSO 1%, read-out: % viability, viability 2

C=C1CC[C@H]2[C@]3(C)C[C@H](C=C(C)C)O[C@H]3CC[C@]2(C)[C@@H]1Cc1c(OC)oc(CO)c(C)c1=O [Compound 18]
EC50 ([1]; MAGI assay, read-out: EC50): < 200 nM
EC50 ([1]; average of numeric determinations, read-out: Avg. EC50): 644 nM
Luminescence Raw1 (l(2)mbn cells; 0.04 µM): 2968023
Luminescence Raw2 (l(2)mbn cells; 0.04 µM): 2468099
Luminescence Raw1 (l(2)mbn cells; 0.2 µM): 3357960
Luminescence Raw2 (l(2)mbn cells; 0.2 µM): 2956480
Luminescence Raw1 (l(2)mbn cells; 1 µM): 2768193
Luminescence Raw2 (l(2)mbn cells; 1 µM): 3359403
Luminescence Raw1 (l(2)mbn cells; 4 µM): 1663102
Luminescence Raw2 (l(2)mbn cells; 4 µM): 2355206
Luminescence Raw1 (l(2)mbn cells; 10 µM): 190041
Luminescence Raw2 (l(2)mbn cells; 10 µM): 205906
Luminescence Raw1 (l(2)mbn cells; 20 µM): 236915
Luminescence Raw2 (l(2)mbn cells; 20 µM): 213117
IC50 (l(2)mbn cells; [4]): 6000 nM
IC50 (l(2)mbn cells; average±SEM, read-out: IC50): 6000 ± 1090 nM
IC50 (l(2)mbn cells; [5]): 4920 nM
IC50 (l(2)mbn cells; [6]): 7090 nM
viability at 0.04 µM [2, 7]: 116%
viability at 0.04 µM [2, 8]: 96.2%
viability at 0.2 µM [2, 7]: 131%
viability at 0.2 µM [2, 8]: 115%
viability at 1 µM [2, 7]: 108%
viability at 1 µM [2, 8]: 131%
viability at 4 µM [2, 7]: 64.8%
viability at 4 µM [2, 8]: 91.8%
viability at 10 µM [2, 7]: 7.4%
viability at 10 µM [2, 8]: 8.02%
viability at 20 µM [2, 7]: 9.23%
viability at 20 µM [2, 8]: 8.3%
Luminescence Raw1 (DL1 cells; 0.04 µM, replicate 1): 1968545
Luminescence Raw2 (DL1 cells; 0.04 µM, replicate 2): 1896774
Luminescence Raw1 (DL1 cells; 0.2 µM, replicate 1): 1171179
Luminescence Raw2 (DL1 cells; 0.2 µM, replicate 2): 1320836
Luminescence Raw1 (DL1 cells; 1 µM, replicate 1): 154319
Luminescence Raw2 (DL1 cells; 1 µM, replicate 2): 146747
Luminescence Raw1 (DL1 cells; 4 µM, replicate 1): 102038
Luminescence Raw2 (DL1 cells; 4 µM, replicate 2): 104562
Luminescence Raw1 (DL1 cells; 10 µM, replicate 1): 106725
Luminescence Raw2 (DL1 cells; 10 µM, replicate 2): 129801
Luminescence Raw1 (DL1 cells; 20 µM, replicate 1): 80404
Luminescence Raw2 (DL1 cells; 20 µM, replicate 2): 106364
IC50 (DL1 cells; [4]): 254 nM
IC50 (DL1 cells; average±SEM, read-out: IC50): 250 ± 20 nM
IC50 (DL1 cells; [5]): 236 nM
IC50 (DL1 cells; [6]): 272 nM
viability at 0.04 µM [3, 7]: 95.6%
viability at 0.04 µM [3, 8]: 92.1%
viability at 0.2 µM [3, 7]: 56.9%
viability at 0.2 µM [3, 8]: 64.1%
viability at 1 µM [3, 7]: 7.49%
viability at 1 µM [3, 8]: 7.12%
viability at 4 µM [3, 7]: 4.95%
viability at 4 µM [3, 8]: 5.08%
viability at 10 µM [3, 7]: 5.18%
viability at 10 µM [3, 8]: 6.3%
viability at 20 µM [3, 7]: 3.9%
viability at 20 µM [3, 8]: 5.16%
Cytotoxicity (MAGI cells): >10 µM
cytotoxicity against the bulk of MCF-7 cells (MCF-7 cells): dose-dependent cytotoxicity
viability at 0.1 µM (MCF-7 cells; Homo sapiens, MCF7, 72 h, MCF-7, 72 h, 0.1 µM (DMSO 0.002%), read-out: A490 (control =1) ave): 65.7%
viability at 1 µM (MCF-7 cells; Homo sapiens, MCF7, 72 h, MCF-7, 72 h, 1 µM (DMSO 0.02%), read-out: A490 (control =1) ave): 26.3%
viability at 10 µM (MCF-7 cells; Homo sapiens, MCF7, 72 h, MCF-7, 72 h, 10 µM (DMSO 0.2%), read-out: A490 (control =1) ave): 15%
A490 ave (MCF-7 cells; MCF-7, 72 h, 0.1 µM (DMSO 0.002%), control 1.064): 0.699
A490 ave (MCF-7 cells; MCF-7, 72 h, 1 µM (DMSO 0.02%), control 1.104): 0.290
A490 ave (MCF-7 cells; MCF-7, 72 h, 10 µM (DMSO 0.2%), control 1.049): 0.158
